Test system: human MSC
Experiment: Anti-oxidative stress testing, LIVE/DEAD Viability/Cytotoxicity Assay with H2O2
Assay type: cell-based
Conditions: MSCs, 12 hours of oxidative stress (100 μM H2O2)
Description: The percentage of live and dead cells was determined simultaneously by measuring intracellular esterase activity and plasma membrane integrity using the LIVE/DEAD® Viability/Cytotoxicity Assay Kit (Life Technologies). Briefly, human MSC were plated on 24 wells plate. On, next day cells were treated with ingredients and 100 μM H2O2 for 12 hr. The supernatant media from each well was collected into microtubes and cells were washed with 1×PBS, followed by collection of washes into respective microtubes to collect any floating or dead cells. The cells attached to the bottom of the plate were incubated in 1×PBS in a 37° C. incubator. The microtubes were centrifuged at 2000 rpm for 3 min to get the cell pellet. After removing supernatant, cell pellet was resuspended into 1×PBS containing 2 μM calcein AM and 4 μM ethidium/homodimer. […] The cells were then imaged under 10× objective using fluorescence microscope (Olympus IX71).
The percentage of live and dead cells was determined simultaneously by measuring intracellular esterase activity and plasma membrane integrity using the LIVE/DEAD® Viability/Cytotoxicity Assay Kit (Life Technologies). […] The cells were then imaged under 10× objective using fluorescence microscope (Olympus IX71).
Fluorescence microscope images showing a percentage of live and dead MSCs in 24 wells after 12 hours of treatment with oxidative stress (100 μM H2O2) were examined. […]

C=C1CC[C@H](O)C/C1=C/C=C1\CCC[C@]2(C)[C@@H]([C@H](C)CCCC(C)C)CC[C@@H]12 [Vitamin D alone (0.3 mg), cholecalciferol]
Cell Survival Rate Measured by Fluorescence Microscope (%): 2.5%

Reference: US9980993B2, “Nutraceutical supplement with Lactobacillus rhamnosus” (NWO Stem Cure, LLC, priority 2014, dated 2018)
